Laboratory results taken from PMC7705960, “Discovery of a Beetroot Protease Inhibitor to Identify and Classify Plant-Derived Cystine Knot Peptides” (Journal of Natural Products, 2020).
Values joined by “and” are separate entries in the source; they are usually repeats but may differ in a detail not shown here. Equal values may be shown once. Read-outs that look alike come from different tables or passages of the source. Positions of bridges follow the written chain, without caps; N, C: chain ends. Residues, ends and D or L forms follow the SMILES beside them.

T1: human POP (Homo sapiens, UniProt P48147)
T1 construct: The full-length cDNA was cloned into the BamHI and EcoRI cloning sites of the commercially available expression plasmid pGEX-6P1; GST (from pGEX-6P1) (N, cleaved yes); made in house; host or cells: E. coli BL21
T1 sequence (P48147 1-710): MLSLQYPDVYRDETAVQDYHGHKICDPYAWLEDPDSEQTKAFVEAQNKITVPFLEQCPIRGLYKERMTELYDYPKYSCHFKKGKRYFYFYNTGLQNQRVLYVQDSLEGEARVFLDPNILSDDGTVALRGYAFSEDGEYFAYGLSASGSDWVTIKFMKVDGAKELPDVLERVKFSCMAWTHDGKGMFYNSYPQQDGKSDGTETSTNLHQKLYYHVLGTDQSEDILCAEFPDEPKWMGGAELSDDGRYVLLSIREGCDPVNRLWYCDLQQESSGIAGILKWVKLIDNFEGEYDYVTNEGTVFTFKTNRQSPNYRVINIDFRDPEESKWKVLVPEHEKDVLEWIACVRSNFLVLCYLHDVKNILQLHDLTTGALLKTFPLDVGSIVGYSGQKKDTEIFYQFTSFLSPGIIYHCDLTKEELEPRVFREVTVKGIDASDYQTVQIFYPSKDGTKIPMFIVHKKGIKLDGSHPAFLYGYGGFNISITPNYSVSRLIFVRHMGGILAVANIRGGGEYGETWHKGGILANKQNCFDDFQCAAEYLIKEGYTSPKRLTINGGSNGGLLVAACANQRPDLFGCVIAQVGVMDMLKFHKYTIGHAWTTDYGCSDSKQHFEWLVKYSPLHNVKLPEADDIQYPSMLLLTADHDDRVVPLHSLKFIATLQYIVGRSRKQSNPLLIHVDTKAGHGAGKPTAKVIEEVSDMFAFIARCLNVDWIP

T2: Bovine β-trypsin (Bos taurus, UniProt P00760)
T2 sequence (P00760 24-246): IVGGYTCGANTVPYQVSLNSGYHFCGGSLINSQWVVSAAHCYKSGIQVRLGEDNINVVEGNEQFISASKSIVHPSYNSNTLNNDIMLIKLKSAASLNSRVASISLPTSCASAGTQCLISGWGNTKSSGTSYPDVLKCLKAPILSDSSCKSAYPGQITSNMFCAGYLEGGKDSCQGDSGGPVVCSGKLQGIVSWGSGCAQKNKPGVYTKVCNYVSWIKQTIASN

B1: Kunitz-type soybean trypsin inhibitor: well-characterized Kunitz-type soybean trypsin inhibitor, used as control (protein, UniProt P01070 25-205, looked up)
Trypsin inhibitor A: DFVLDNEGNPLENGGTYYILSDITAFGGIRAAPTGNERCPLTVVQSRNELDKGIGTIISSPYRIRFIAEGHPLSLKFDSFAVIMLCVGIPTEWSVVEDLPEGPAVKIGENKDAMDGWFRLERVSDDEFNNYKLVFCPQQAEDDKCGDIGISIDHDDGTRRLVVSKNKPLVVQFQKLDKESL

What was measured:
human POP = molecular target: T1, human POP; test: Prolyl oligopeptidase (POP) inhibition assay (fluorescence, Z-Gly-Pro-AMC); type: biochemical; conditions: synthetic bevuTI-I; recombinant human POP 50 ng, Z-Gly-Pro-AMC 45 μM, 20 mM HEPES pH 7.4, 150 mM NaCl, 1 mM EDTA, 0.5 mM DTT, ex 360/em 450 nm; mean ± SD of three biological replicates
Description: As it was previously reported, plant cystine knot peptides belonging to the cyclotide family have the ability to inhibit human prolyl endopeptidase.[33] Thus, we were interested whether the bevuTI-I was also able to inhibit this enzyme. Like psysol-2, bevuTI-I has three proline residues and presumably the same cysteine connectivity.
Recombinant human POP (NM_002726.4) was produced in E. coli BL21 (New England Biolabs, MA, USA). The full-length cDNA was cloned into the BamHI and EcoRI cloning sites of the commercially available expression plasmid pGEX-6P1 by a customized manufacturer service from GenScript (Leiden, The Netherlands). […] The protein concentration of the eluate was determined by the bicinchoninic acid assay (ThermoFisher Scientific), and aliquots of stock protease in storage buffer (including 20% glycerol) were kept at −80 °C. […] Enzyme activity was measured by fluorescence signal as a result of free fluorophore from the Z-Gly-Pro-AMC substrate with an excitation of 360 ± 20 nm and emission of 450 ± 20 nm. Kinetic inhibition data were recorded in 5 min intervals, and the amount of inhibition was calculated from the steepness of the linear initial velocity. […] Concentration–response experiments were evaluated with a fitted nonlinear regression function in GraphPad Prism.

Bovine β-trypsin = molecular target: T2, Bovine β-trypsin; test: Trypsin inhibition assay (colorimetric, benzoylarginine-4-nitroanilide); type: biochemical
Procedure: Based on the classification of bevuTI-I as putative trypsin inhibitor of the M. jalapa trypsin inhibitor family, enzymatic inhibition assays were performed.[33] Bovine β-trypsin and bevuTI-I were used in a colorimetric trypsin inhibition assay to measure concentration-dependent inhibition.
The trypsin inhibition assay was performed in 96-well microtiter plates. To 140 μL of a 20 mM Tris-HCl buffer (pH 8.0) was added 20 μL of inhibitor (dissolved in buffer)/buffer (negative control). Afterward, 20 μL of bovine trypsin (0.125 mg/mL, Sigma-Aldrich) was added, and the plate was incubated for 10 min at 22 °C. A volume of 20 μL of benzoylarginine-4-nitroanilide hydroxychloride (Bachem, Bubendorf, Switzerland) dissolved in 20% DMSO at a concentration of 900 μM was added automatically with the dispenser of the Synergy H4 Hybrid reader (BioTek, VM, USA). The rate of enzymatic reaction with different concentrations of inhibitor was measured for 1 h every 5 min at a wavelength of 410 nm. For calculations, the linear portion of data, corresponding to the initial rate of reaction, was used. The highest rate was set to 100% activity. A nonlinear regression (log inhibitor vs normalized response) was performed with GraphPad Prism version 8.0.0 for Windows (GraphPad Software, CA, USA). The top and bottom parameters were set to 100% and 0%, respectively.

Molecule	IC50 (human POP) [nM]	IC50 (Bovine β-trypsin)	IC50 (Bovine β-trypsin; control inhibitor (Glycine max Kunitz-type), bovine trypsin, 20 mM Tris-HCl pH 8.0, 10 min pre-incubation at 22 °C, 410 nm, read-out: IC50, trypsin inhibition) [nM]
CC[C@H](C)[C@@H]1NC(=O)[C@H](CCCNC(=N)N)NC(=O)[C@H](CC(C)C)NC(=O)[C@H](Cc2c[nH]c3ccccc23)NC(=O)[C@H](CCC(N)=O)NC(=O)[C@H](Cc2c[nH]cn2)NC(=O)[C@@H]2CCCN2C(=O)[C@H](C(C)C)NC(=O)[C@@H]2CSSC[C@@H]3NC(=O)[C@H]([C@@H](C)CC)NC(=O)[C@H]([C@@H](C)O)NC(=O)CNC(=O)[C@H](CO)NC(=O)[C@@H]4CCCN4C(=O)[C@H]([C@@H](C)O)NC(=O)[C@@H](N)CSSC[C@H](NC(=O)[C@H](CSSC[C@@H](C(=O)N[C@@H](C)C(=O)O)NC(=O)[C@H](C(C)C)NC(=O)[C@H](Cc4ccccc4)NC1=O)NC(=O)[C@H](CCC(N)=O)NC(=O)[C@H](CCC(=O)O)NC(=O)[C@@H]1CCCN1C(=O)[C@H](C)NC(=O)[C@H](CCC(=O)O)NC(=O)[C@@H]1CCCN1C(=O)[C@H](CO)NC3=O)C(=O)N[C@@H](CO)C(=O)N[C@@H](CC(N)=O)C(=O)N[C@@H](CO)C(=O)N2 [bevuTI-I, Beta vulgaris trypsin inhibitor I] (H-CTPSGTICSPEAPEQCCSNSCVPHQWLRIFVCA-OH; disulfide 1-17, 8-21, 16-32)	11000 ± 5300	471 nM and 568 nM	–
B1	–	–	198 ± 72
